Where two headings read alike, the source gives them in different places.
How the values were obtained:
[1] = biological target: T1, HIF-2α HIS TAG-PASB Domain (Homo sapiens, UniProt Q99814); assay: HIF-2α Scintillation Proximity Assay (SPA); type: binding
T1 construct: 100 nM HIF-2α HIS TAG-PASB Domain
How it was run: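 IC50 values rest on percent inhibition, where the sample signal is scaled between high and low controls. Wells contain about 100 μL: compound dispensed as 2 μL of DMSO solution, 88 μL protein-probe mix and 10 μL of beads.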

786-O cells = assay: VEGF ELISA Assay; type: cell-based; conditions: Homo sapiens, 786-0
Procedure: Each concentration was plated in duplicate. About 20 hours later, medium was removed by suction and each well was supplied with 180 μL of growth medium. About 20 μl freshly-made 10× compound stocks were added to each well. […] The EC50 was calculated by GraphPad Prism using the dose-response-inhibition (four parameter) equation. The cell-seeded plate was then subjected to CellTiter-Glo luminescence cell viability assay (Promega) by adding 50 μL of Celltiter Glo reagent into each well and shaking the plate for 8 minutes at 550 rpm (Thermomixer R, Eppendorf) then the luminescence signal immediately read in a plate reader (3 second delay, 0.5 second/well integration time, Synergy 2 multi Detection Microplate reader).

786-O-Hif-Luc cells = assay: Luciferase Assay (HIF responsive elements reporter)
Procedure: A pool of infected cells were then selected against 2 μg/mL of puromycin (P8833, Sigma) for 10 days followed by limited dilution to select single clones. […] Each concentration was tested in triplicate. After about 24 hours, luciferase activity was determined using ONE-Glo Luciferase Assay Reagent (E6110, Promega) following the manufacturer's recommended procedure. EC50 were calculated using Dotmatics software.

[2] = read-out: Scintillation Proximity Assay IC50
[3] = read-out: Mean Luciferase EC50 (nM), 786-O-Hif-Luc cells
[4] = Scintillation Proximity Assay IC50 (nM)
[5] = read-out: Mean Luciferase EC50 (nM)

T1 sequence (Q99814 240-350 limits assumed): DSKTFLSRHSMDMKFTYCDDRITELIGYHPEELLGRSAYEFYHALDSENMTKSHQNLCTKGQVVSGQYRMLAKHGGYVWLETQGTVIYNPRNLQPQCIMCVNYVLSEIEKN

Structure (SMILES) | IC50 [1, 2] [nM] | EC50 (786-O cells) [nM] | EC50 (786-O-Hif-Luc cells; [3]) [nM] | IC50 [1, 4] [nM] | EC50 (786-O-Hif-Luc cells; [5]) [nM]
O=S(=O)(CF)c1ccc(O[C@H]2C[C@H](F)C2)c2c1[C@H](O)[C@H](F)[C@@H]2F [Compound 743] | < 50 | 50 to 249 | < 50 |  | 
CS(=O)(=O)c1ccc(O[C@H]2C[C@@H](F)C2)c2c1[C@H](O)C(F)(F)[C@@H]2F [Compound 740] | < 50 | 50 to 249 | 50 to 249 |  | 
O=S(=O)(c1ccc(OC2CCC2)c2c1[C@H](O)C(F)(F)C2)C(F)(F)F [Compound 657] | < 50 | < 50 | < 50 |  | 
CCCCOc1ccc(S(=O)(=O)C(F)(F)F)c2c1CC(F)(F)[C@H]2O [Compound 710] | < 50 | 50 to 249 | < 50 |  | 
CS(=O)(=O)c1ccc(O[C@H]2C[C@@H](C#N)C2)c2c1[C@H](O)C(F)(F)[C@@H]2F [Compound 761] | < 50 | 50 to 249 | 50 to 249 |  | 
CS(=O)(=O)c1ccc(Oc2cc(F)cc(C#N)c2)c2c1[C@H](O)C(F)(F)[C@@H]2F [Compound 292, 3-fluoro-5-[(1S,3R)-2,2,3-trifluoro-1-hydroxy-7-methylsulfonyl-indan-4-yl]oxy-benzonitrile] | < 50 | < 50 | < 50 |  | 
N#Cc1cncc(Oc2ccc3c(c2Br)[C@@H](O)C(F)(F)S3(=O)=O)c1 [Compound 424] | 50 to 249 | 250 to 1000 | 50 to 249 |  | 
N#CC1(COc2ccc(S(=O)(=O)C(F)(F)F)c3c2CC(F)(F)C3O)CC1 (stereo not drawn) [Compound 620] | 50 to 249 | 50 to 249 | 50 to 249 |  | 
O=S(=O)(c1ccc(OCC2CC2)c2c1[C@H](O)C(F)(F)C2)C(F)(F)F [Compound 656] | < 50 | < 50 | < 50 |  | 
N#Cc1cc(F)cc(Nc2ccc(S(=O)(=O)C(F)(F)F)c3c2CC(F)(F)[C@H]3O)c1 [Compound 489, (S)-3-((2,2-difluoro-1-hydroxy-7-((trifluoromethyl)sulfonyl)-2,3-dihydro-1H-inden-4-yl)amino)-5-fluorobenzonitrile] | < 50 | < 50 | < 50 |  | 
O=S(=O)(c1ccc(Oc2cc(F)c[n+]([O-])c2)c2c1[C@H](O)C(F)(F)C2)C(F)(F)F [Compound 310] | < 50 | 50 to 249 | 50 to 249 |  | 
O=S(=O)(c1ccc(Oc2cc(F)cc(Cl)c2)c2c1[C@H](O)C(F)(F)C2)C(F)F [Compound 158] |  | < 50 | < 50 | < 50 | 
O=S(=O)(CF)c1ccc(OC2CC(F)(F)C2)c2c1[C@H](O)[C@H](F)[C@@H]2F [Compound 578] | < 50 | 50 to 249 | 50 to 249 |  | 
O=S(=O)(c1ccc(Oc2cncc(F)c2)c2c1[C@H](O)C(F)(F)C2)C(F)(F)F [Compound 309] | < 50 | < 50 | < 50 |  | 
O=S(=O)(c1ccc(Nc2cc(F)cc(F)c2)c2c1C(O)C(F)(F)C2)C(F)(F)F (stereo not drawn) [Compound 507] | < 50 | 50 to 249 | 50 to 249 |  | 
CS(=O)(=NC#N)c1ccc(Oc2cc(F)cc(C#N)c2)c2c1[C@H](O)C(F)(F)C2 (single isomer, unassigned) [Compound 240] | < 50 | 50 to 249 | < 50 |  | 
O=S(=O)(c1ccc(Oc2ccc(F)c(F)c2)c2c1[C@H](O)C(F)(F)C2)C(F)(F)F [Compound 233] | < 50 | < 50 | < 50 |  | 
O=S(=O)(c1ccc(Oc2cc(F)cc(Cl)c2)c2c1C(O)C(F)(F)C2)C(F)F (stereo not drawn) [Compound 8] |  | < 50 | < 50 | < 50 | 
CC(C)COc1ccc(S(=O)(=O)C(F)(F)F)c2c1CC(F)(F)[C@H]2O [Compound 709] | < 50 | < 50 | < 50 |  | 
O=S(=O)(c1ccc(OCC2COC2)c2c1[C@H](O)C(F)(F)C2)C(F)(F)F [Compound 713] | < 50 | 50 to 249 | 50 to 249 |  | 
N#Cc1cncc(Oc2ccc(C(F)(F)F)c3c2CC(F)(F)[C@H]3O)c1 [Compound 303] | < 50 | 50 to 249 | < 50 |  | 

Structure (SMILES) | IC50 [1, 2] [nM] | EC50 (786-O cells) [nM] | EC50 (786-O-Hif-Luc cells; [3]) [nM] | IC50 [1, 4] [nM] | EC50 (786-O-Hif-Luc cells; [5]) [nM]
CC(C)Oc1ccc(S(=O)(=O)C(F)(F)F)c2c1CC(F)(F)[C@H]2O [Compound 654] | < 50 | < 50 | < 50 |  | 
N#Cc1cc(F)cc(Oc2ccc(S(=O)(=O)C(F)F)cc2Br)c1 [Compound 132] | 250 to 1000 | 250 to 1000 | > 1000 |  | 
CS(=O)(=O)c1ccc(Oc2cc(F)cc(F)c2)c2c1[C@H](O)C(F)(F)C2 [Compound 159] | < 50 | < 50 | < 50 |  | 
N#Cc1cc(Oc2ccc(S(=O)(=O)C(F)(F)F)c3c2CC(F)(F)[C@H]3O)c[n+]([O-])c1 [Compound 267] | 50 to 249 | 250 to 1000 | 50 to 249 |  | 
O=S1(=O)c2ccc(Oc3cncc(Cl)c3)c(Br)c2[C@@H](O)C1(F)F [Compound 421] | 50 to 249 | 50 to 249 | 50 to 249 |  | 
O=S(=O)(c1ccc(OC2CCCCC2)c2c1C(O)C(F)(F)C2)C(F)(F)F (stereo not drawn) [Compound 617] | < 50 | < 50 | < 50 |  | 
O=S(=O)(c1ccc(Oc2ccc(F)c(F)c2)c2c1[C@H](O)C(F)(F)C2)C(F)F [Compound 196] | < 50 | < 50 | < 50 |  | 
N#Cc1cc(F)cc(Oc2ccc(S(=O)(=O)C(F)F)c(CO)c2Br)c1 [Compound 80] | < 50 | 250 to 1000 | 250 to 1000 |  | 
O=S(=O)(c1ccc(OC2COC2)c2c1[C@H](O)C(F)(F)C2)C(F)(F)F [Compound 784] | 50 to 249 | 50 to 249 | 50 to 249 |  | 
O[C@H]1c2c(C(F)(F)F)ccc(OCC(F)F)c2CC1(F)F [Compound 579] | < 50 | < 50 | < 50 |  | 
CS(=O)(=NC#N)c1ccc(Oc2cc(F)cc(C#N)c2)c2c1[C@H](O)C(F)(F)C2 (stereo partly drawn) [Compound 245] | < 50 | 50 to 249 | 50 to 249 |  | 
N#Cc1cc(F)cc(Oc2ccc(S(=O)(=O)CF)c3c2CC(F)(F)[C@H]3O)c1 [Compound 63] |  | < 50 | < 50 | < 50 | 
O=S(=O)(c1ccc(Oc2cc(F)cc(Cl)c2)c(C(F)F)c1)C(F)(F)F [Compound 124] |  | 250 to 1000 |  |  | 250 to 1000
CCCOc1ccc(S(=O)(=O)C(F)(F)F)c2c1CC(F)(F)[C@H]2O [Compound 655] | < 50 | < 50 | < 50 |  | 
N#Cc1cc(F)cc(Oc2ccc(S(=N)(=O)C(F)(F)F)c3c2CC(F)(F)[C@H]3O)c1 (stereo partly drawn) [Compound 305] | < 50 | < 50 | < 50 |  | 
CC(C)(C#N)COc1ccc(S(=O)(=O)C(F)(F)F)c2c1CC(F)(F)C2O (stereo not drawn) [Compound 610] | < 50 | 50 to 249 | 50 to 249 |  | 
CC1(O)c2c(ccc(Oc3cc(F)cc(C#N)c3)c2C#N)S(=O)(=O)C1(F)F (stereo not drawn) [Compound 451] |  | < 50 | < 50 |  | 
O=S(=O)(c1ccc(Oc2cc(F)cc(Cl)c2)c(Cl)c1CO)C(F)F [Compound 41] |  | 250 to 1000 |  |  | 250 to 1000
O[C@H]1c2c(C(F)(F)F)ncc(OC3CC(F)C3)c2C[C@H]1F (stereo partly drawn) [Compound 478] |  | < 50 | < 50 |  | 
N#Cc1cccc(Oc2ccc(S(=O)(=O)C(F)(F)F)c(C#N)c2Br)c1 [Compound 99] |  | 250 to 1000 | 250 to 1000 |  | 
N#Cc1cc(F)cc(Oc2ccc(S(=O)(=O)C(F)F)c3c2CC[C@H]3O)c1 [Compound 155] |  | 50 to 249 |  |  | 50 to 249

Reference: patent US10278942B2 (PELOTON THERAPEUTICS, INC., priority 2015, dated 2019)
